Like-named read-outs stand apart in the source and are kept apart here.
What was measured:
[1] = Stability in mammalian liver microsomes (Example D); type: in vitro ADME; details: human liver microsomes 0.5 mg/mL, 0.5 μM compound, 37° C.; scaled from in vitro half-life (Obach method); linker comparators
Procedure: Compounds of Formula I were assessed for their stability in mammalian liver microsomes. A compound of Formula I (0.5 μM) was incubated with pooled mixed gender human liver microsomes (HLM) (0.5 mg/mL total protein) at 37° C. in the presence of an NADPH-generating system containing 50 mM, pH 7.4 potassium phosphate buffer, 3 mM magnesium chloride, 1 mM EDTA, 1 mM NADP, 5 mM glusose-6-phosphate, and 1 Unit/mL glucose-6-phosphate dehydrogenase. All concentrations were relative to the final incubation volume of 125 μL. Incubations were conducted at 37° C. for 0, 5, 10, 20, 40 and 60 minutes in a water bath and terminated by rapid mixing with 150 μL of ice-cold acetonitrile containing internal standard, and precipitated proteins were removed by centrifugation prior to LC-MS/MS analysis. Aliquots of the resulting supernatant fractions were analyzed by LC-MS/MS monitoring for depletion of parent compound. The resultant peak area ratio versus time data was fitted to a non-linear regression using XLfit Scientific Curve Fitting Software (IDBS Ltd., Surrey, UK) and half-life was calculated from the slope. Pharmacokinetic parameters were predicted using the method described by Obach et al (J. Pharmcol. Exp. Ther. 1997; 283:46.58). Briefly, values for intrinsic clearance were calculated from the in vitro half-life data and were then scaled to represent the clearance expected in the entire animal (human). Additional values calculated included predicted extraction ratio and predicted maximum bioavailability. For example, the O-linker has better metabolic stability relative to the methyl linker or the —CH2O-linker, as shown by the following comparators

[2] = target: recombinant human GPR52 (Homo sapiens, UniProt Q9Y2T5); experiment: HTRF cAMP assay, GPR52 activity (Example A); type: cell-based; details: for Emax: maximum cAMP at 10 μM or 31.6 μM test compound, as percentage of Emax of control compound 4-(3-(3-fluoro-5-(trifluoromethyl)benzyl)-5-methyl-4,5-dihydro-1H-1,2,4-triazol-1-yl)-2-methylbenzamide
Sequence of recombinant human GPR52 (Q9Y2T5 whole entry): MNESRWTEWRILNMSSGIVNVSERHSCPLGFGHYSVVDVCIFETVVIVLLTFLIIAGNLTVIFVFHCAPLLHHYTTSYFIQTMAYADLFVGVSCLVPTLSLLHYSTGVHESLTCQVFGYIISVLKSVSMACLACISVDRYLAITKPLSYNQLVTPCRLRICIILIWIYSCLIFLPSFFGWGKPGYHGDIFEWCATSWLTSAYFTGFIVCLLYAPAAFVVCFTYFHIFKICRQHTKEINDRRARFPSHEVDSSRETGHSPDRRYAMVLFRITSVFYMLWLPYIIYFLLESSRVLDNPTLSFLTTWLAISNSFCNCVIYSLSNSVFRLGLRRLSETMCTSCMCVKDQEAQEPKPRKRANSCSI
Procedure, shortened: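 Flp-In CHO cells stably expressing human GPR52 (20,000/well) incubated 30 min at room temperature with compound, cAMP then quantified by competitive HTRF. EC50 from nonlinear fits of cAMP-transformed data normalized to positive control; Emax is top plateau at 10 or 31.6 μM, given as % of a reference agonist's Emax.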

[3] = average EC50 (n=1 to 15), Flp-In-CHO cells stably expressing recombinant human GPR52, cAMP HTRF, read-out: EC50 (N=)

Q: For `Cc1cc(-c2cc(Cc3ccc4cnn(C)c4c3)ccn2)ccc1C(N)=O`, which “Metabolic stability - predicted systemic clearance” value [1] is on record?
A: Its value is “Metabolic stability - predicted systemic clearance (example D, above) is 11.3 ml/min/kg”.

Q: With `Cc1cc(-c2cc(COc3ccc4c(cnn4C)c3)ccn2)ccc1C(N)=O` as the compound, how does the “Metabolic stability - predicted systemic clearance” value [1] read?
A: The value was “Metabolic stability - predicted systemic clearance (example D, above) is 12.3 ml/min/kg”.

Q: With `CCc1cc(-c2cc(Oc3ccc4c(c3)c(F)nn4C)ccn2)ccc1C(N)=O` [Example 133, 2-ethyl-4-(4-((3-fluoro-1-methyl-1H-indazol-5-yl)oxy)pyridin-2-yl)benzamide] as the compound, how does the EC50 [2, 3] read?
A: The EC50 was 101 to 1000 nM.

Q: What about the Emax [2] of the same compound?
A: The Emax was 141%.

Q: With `CCc1cc(-c2cc(Oc3ccc4c(C)nn(C(F)(F)F)c4c3)ccn2)ccc1C(N)=O` [Example 134, 2-ethyl-4-(4-((3-methyl-1-(trifluoromethyl)-1H-indazol-6-yl)oxy)pyridin-2-yl)benzamide] as the compound, how does the EC50 [2, 3] read?
A: The EC50 was 101 to 1000 nM.

Q: What about the Emax [2] of the same compound?
A: Its Emax is 117%.

Q: Which EC50 [2, 3] does the source give for `Cc1cc(-c2cc(Oc3ccc4c(C)nn(C(F)(F)F)c4c3)ccn2)ccc1C(N)=O` [Example 135, 2-methyl-4-(4-((3-methyl-1-(trifluoromethyl)-1H-indazol-6-yl)oxy)pyridin-2-yl)benzamide] here?
A: Its EC50 is 101 to 1000 nM.

Q: And the Emax [2]?
A: Its Emax is 115%.

Q: With `Cc1cc(-c2cc(Oc3ccc4c(c3)c(C)nn4C)ccn2)ccc1C(N)=O` [drawing 5] as the compound, how does the EC50 ([2]; comparison of position of the nitrogen in the pyridine ring relative to the oxygen linker, read-out: Activity EC50) read?
A: The EC50 was 89 nM.

Q: With `Cc1cc(-c2cc(Oc3ccc4cnn(C)c4c3)ccn2)ccc1C(N)=O` [drawing 281] as the compound, how does the “Metabolic stability - predicted systemic clearance” value [1] read?
A: The value was “Metabolic stability - predicted systemic clearance (example D, above) is 3.6 ml/min/kg”.

Q: Which “Metabolic stability - predicted systemic clearance” value [1] does the source give for `Cc1cc(-c2cc(Oc3ccc4c(cnn4C)c3)ccn2)ccc1C(N)=O` [drawing 283] here?
A: The value was “Metabolic stability - predicted systemic clearance (example D, above) is 8.0 ml/min/kg”.

Source: patent US20260167615A1, “COMPOUNDS AND COMPOSITIONS AS GPR52 MODULATORS” (Neurocrine Biosciences, Inc., priority 2022, published 2026)
